For ten compounds, IC50 and MTAP intact/deleted ratio results are on record in patent US11999727B2 (Tango Therapeutics, Inc., priority 2020, dated 2024).

Assay [1] has as its target T1, PRMT5 (Homo sapiens, UniProt O14744).
T1 construct: purchased Viva (custom protein)
The experiment in a line: PRMT5 biochemical IC50 assay with SAM as cofactor. The conditions noted are these: PRMT5, SAM as cofactor; read-out: SAM IC50.

In assay [2] the target is T1, PRMT5. The assay can be described thus: PRMT5 biochemical IC50 assay with no cofactor. Particulars: PRMT5, no cofactor; read-out: No Cofactor/rel IC50. An excerpt: Table 1 indicates IC50 values (μM) against PRMT5 for exemplary compounds in the presence of SAM as cofactor, with no cofactor, and with MTA as cofactor, respectively (columns 4-6). […] Ki values can be calculated from the IC50 values as described in the Examples section. As detailed in the Examples section, for the assay performed in the presence of SAM, IC50=Ki×1.5 (Ki=IC50/1.5).

Assay [3] addresses T1, PRMT5. The experiment in a line: PRMT5 biochemical IC50 assay with MTA as cofactor. Particulars: PRMT5, MTA as cofactor; read-out: MTA IC50.
The test system of assay [4] is HAP1 MTAP-intact cell line. The experiment in a line: SDMA in-cell western assay, HAP1 MTAP-intact. The class given is cell-based. Particulars: Homo sapiens, HAP1, SDMA in-cell western, HAP1 MTAP-intact; read-out: MTAP HAP1 intact IC50. The method, boiled down: (§1)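 IC50 values come from SDMA signal quantified by in-cell western in two HAP1 lines, one with native MTAP levels and one lacking MTAP.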

Assay [5] has as its system HAP1 MTAP-deleted cell line. The experiment in a line: SDMA in-cell western assay, HAP1 MTAP-deleted. The class given is cell-based. Particulars: for IC50: Homo sapiens, HAP1, SDMA in-cell western, HAP1 MTAP-deleted, read-out: HAP1 MTAP deleted IC50; for MTAP intact/deleted ratio: IC50 ratio HAP1 MTAP-intact vs HAP1 MTAP-deleted, SDMA in-cell western. The gist of the method: as §1

Assay [6] concerns HAP1 MTAP-deleted cell line. The experiment in a line: Viability assay, MTAP-deleted cell line. The conditions noted are these: Homo sapiens, HAP1, viability assay, MTAP-deleted cell line; read-out: HAP1 MTAP deleted viability. The class given is cell-based. An excerpt: Table 1 additionally indicates IC50 values in a viability assay for the MTAP-deleted cell line (column 10), indicating the effect of treatment with compound on cell survival.

T1 sequence (O14744 whole entry): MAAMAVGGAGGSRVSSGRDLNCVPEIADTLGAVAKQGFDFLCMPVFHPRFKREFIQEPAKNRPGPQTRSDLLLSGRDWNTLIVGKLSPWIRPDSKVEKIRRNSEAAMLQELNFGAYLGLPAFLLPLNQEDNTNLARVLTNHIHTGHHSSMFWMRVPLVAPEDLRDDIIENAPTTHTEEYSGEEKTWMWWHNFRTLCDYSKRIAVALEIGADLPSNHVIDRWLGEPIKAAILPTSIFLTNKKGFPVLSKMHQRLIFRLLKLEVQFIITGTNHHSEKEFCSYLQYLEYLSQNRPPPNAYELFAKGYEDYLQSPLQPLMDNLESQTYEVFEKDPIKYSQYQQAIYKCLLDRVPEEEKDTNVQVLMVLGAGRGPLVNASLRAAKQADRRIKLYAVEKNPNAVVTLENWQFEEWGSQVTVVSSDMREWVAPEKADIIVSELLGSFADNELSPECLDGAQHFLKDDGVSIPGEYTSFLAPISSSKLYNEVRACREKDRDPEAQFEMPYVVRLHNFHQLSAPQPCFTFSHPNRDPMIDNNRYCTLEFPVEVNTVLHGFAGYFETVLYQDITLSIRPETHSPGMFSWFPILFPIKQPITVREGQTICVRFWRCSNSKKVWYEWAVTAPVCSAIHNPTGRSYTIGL
T1 sequence (Q9BQA1 whole entry partner): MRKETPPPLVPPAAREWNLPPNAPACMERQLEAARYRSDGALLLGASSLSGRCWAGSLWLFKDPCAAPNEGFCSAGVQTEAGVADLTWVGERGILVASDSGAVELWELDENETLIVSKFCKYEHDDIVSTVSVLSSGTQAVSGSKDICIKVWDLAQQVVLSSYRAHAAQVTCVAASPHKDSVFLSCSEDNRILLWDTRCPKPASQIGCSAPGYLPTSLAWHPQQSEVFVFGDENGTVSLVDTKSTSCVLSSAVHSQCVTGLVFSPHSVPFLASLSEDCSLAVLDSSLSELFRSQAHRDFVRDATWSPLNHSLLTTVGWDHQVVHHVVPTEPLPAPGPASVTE

Consider `CCc1cc(NC(=O)C(=O)N2C[C@@H](C)CC[C@@H]2c2ccc3sc([C@@H]4CN(C)CCO4)nc3c2)cnc1N` [Compound 1134, N-(6-amino-5-ethyl-3-pyridyl)-2-oxo-2-[(2R,5S)-5-methyl-2-[2-[(2S)-4-methylmorpholin-2-yl]-1,3-benzothiazol-5-yl]-1-piperidyl]acetamide], for which the IC50 in assay [1] was 0.05 to 0.5 µM; in assay [2] it was under 0.05 µM; in assay [3], under 0.05 µM; in assay [4], under 0.1 µM; in assay [5], under 0.1 µM; in assay [6], under 1 µM. Also, in assay [5], the MTAP intact/deleted ratio result was “A (an IC50 ratio greater than or equal to 10 fold)”.

For the compound `Cc1cc(NC(=O)C(=O)N2C[C@@H](C)CC[C@@H]2c2ccc3sc(C4CCN(C)CC4)nc3c2)cnc1C` [Compound 1137, N-(5,6-dimethylpyridin-3-yl)-2-((2R,5S)-5-methyl-2-(2-(1-methylpiperidin-4-yl)benzo[d]thiazol-5-yl)piperidin-1-yl)-2-oxoacetamide], the IC50 in assay [1] is under 0.05 µM; in assay [2], under 0.05 µM; in assay [3], under 0.05 µM; in assay [4], under 0.1 µM; in assay [5], under 0.1 µM; in assay [6] it was under 1 µM. In addition, in assay [5], the MTAP intact/deleted ratio result was “A (an IC50 ratio greater than or equal to 10 fold)”.

As to `CCc1cc(NC(=O)C(=O)N2C[C@@H](C)CC[C@@H]2c2ccc3sc([C@@H]4C[C@H]5CN(C)C[C@H]54)nc3c2)cnc1N` [Compound 1147, N-(6-amino-5-ethylpyridin-3-yl)-2-((5S)-5-methyl-2-(2-(3-methyl-3-azabicyclo[3.2.0]heptan-6-yl)benzo[d]thiazol-5-yl)piperidin-1-yl)-2-oxoacetamide], the IC50 is under 0.05 µM in assay [1]; under 0.05 µM in assay [2]; under 0.05 µM in assay [3]; under 0.1 µM in assay [4]; under 0.1 µM in assay [5]; under 1 µM in assay [6]. For the same compound, in assay [5], the MTAP intact/deleted ratio entry is recorded as “A (an IC50 ratio greater than or equal to 10 fold)”.

As for `CCc1cc(NC(=O)C(=O)N2C[C@@H](C)CC[C@@H]2c2ccc3sc(C4CN(C)C4)nc3c2)cnc1N` [Compound 1151, N-(6-amino-5-ethylpyridin-3-yl)-2-((2R,5S)-5-methyl-2-(2-(1-methylazetidin-3-yl)benzo[d]thiazol-5-yl)piperidin-1-yl)-2-oxoacetamide], the IC50 in assay [1] is under 0.05 µM; in assay [2] it was under 0.05 µM; in assay [3] it was under 0.05 µM; in assay [4] it was under 0.1 µM; in assay [5], under 0.1 µM; in assay [6], under 1 µM. The MTAP intact/deleted ratio entry in assay [5] is listed as “A (an IC50 ratio greater than or equal to 10 fold)”.

On to `CCc1cc(NC(=O)C(=O)N2C[C@@H](C)CC[C@@H]2c2ccc3sc(CO)nc3c2)cnc1N` [Compound 1152, N-(6-amino-5-ethylpyridin-3-yl)-2-((2R,5S)-2-(2-(hydroxymethyl)benzo[d]thiazol-5-yl)-5-methylpiperidin-1-yl)-2-oxoacetamide], for which the IC50 in assay [1] was 0.05 to 0.5 µM; in assay [2], under 0.05 µM; in assay [3], under 0.05 µM; in assay [4], 0.1 to 1 µM; in assay [5], under 0.1 µM; in assay [6], under 1 µM. Also, the MTAP intact/deleted ratio entry in assay [5] is listed as “A (an IC50 ratio greater than or equal to 10 fold)”.

Consider `COc1ncc(NC(=O)C(=O)N2C[C@@H](C)CC[C@@H]2c2ccc3sc(C4(CN(C)C)COC4)nc3c2)cc1C(N)=O` [Compound 1155, 5-(2-((2R,5S)-2-(2-(3-((dimethylamino)methyl)oxetan-3-yl)benzo[d]thiazol-5-yl)-5-methylpiperidin-1-yl)-2-oxoacetamido)-2-methoxynicotinamide], for which the IC50 was under 0.05 µM in assay [1]; under 0.05 µM in assay [2]; under 0.05 µM in assay [3]; 0.1 to 1 µM in assay [4]; under 0.1 µM in assay [5]; under 1 µM in assay [6]. Moreover, the MTAP intact/deleted ratio entry in assay [5] is “A (an IC50 ratio greater than or equal to 10 fold)”.

With `CCc1cc(NC(=O)C(=O)N2C[C@@H](C)CC[C@@H]2c2ccc3sc(C4(F)CCN(C)CC4)nc3c2)cnc1N` [Compound 1160, N-(6-amino-5-ethylpyridin-3-yl)-2-((2R,5S)-2-(2-(4-fluoro-1-methylpiperidin-4-yl)benzo[d]thiazol-5-yl)-5-methylpiperidin-1-yl)-2-oxoacetamide], the IC50 in assay [1] is under 0.05 µM; in assay [2], under 0.05 µM; in assay [3], under 0.05 µM; in assay [4] it was under 0.1 µM; in assay [5] it was under 0.1 µM; in assay [6], under 1 µM. The MTAP intact/deleted ratio entry in assay [5] is on record as “A (an IC50 ratio greater than or equal to 10 fold)”.

As to `COc1ncc(NC(=O)C(=O)N2C[C@@H](C)CC[C@@H]2c2ccc3sc(CN(C)C)nc3c2)cc1C(N)=O` [Compound 1162, 5-(2-((2R,5S)-2-(2-((dimethylamino)methyl)benzo[d]thiazol-5-yl)-5-methylpiperidin-1-yl)-2-oxoacetamido)-2-methoxynicotinamide], the IC50 is 0.05 to 0.5 µM in assay [1]; under 0.05 µM in assay [2]; under 0.05 µM in assay [3]; 0.1 to 1 µM in assay [4]; under 0.1 µM in assay [5]; under 1 µM in assay [6]. The MTAP intact/deleted ratio result in assay [5] is “A (an IC50 ratio greater than or equal to 10 fold)”.

On to `CCN1CCC(c2nc3cc([C@H]4CC[C@H](C)CN4C(=O)C(=O)Nc4cnc(OC)c(C(N)=O)c4)ccc3s2)CC1` [Compound 1164, 5-(2-((2R,5)-2-(2-(1-ethylpiperidin-4-yl)benzo[d]thiazol-5-yl)-5-methylpiperidin-1-yl)-2-oxoacetamido)-2-methoxynicotinamide], for which the IC50 in assay [1] is under 0.05 µM; in assay [2] it was under 0.05 µM; in assay [3], under 0.05 µM; in assay [4], 0.1 to 1 µM; in assay [5], under 0.1 µM; in assay [6], under 1 µM. Besides, the MTAP intact/deleted ratio result in assay [5] is listed as “A (an IC50 ratio greater than or equal to 10 fold)”.

`CCc1cc(NC(=O)C(=O)N2C[C@@H](C)CC[C@@H]2c2ccc3sc(C4(CN(C)C)COC4)nc3c2)cnc1N` [Compound 1165, N-(6-amino-5-ethylpyridin-3-yl)-2-((2R,5S)-2-(2-(3-((dimethylamino)methyl)oxetan-3-yl)benzo[d]thiazol-5-yl)-5-methylpiperidin-1-yl)-2-oxoacetamide]: the IC50 in assay [1] was 0.05 to 0.5 µM; in assay [2] it was under 0.05 µM; in assay [3], under 0.05 µM; in assay [4], under 0.1 µM; in assay [5], under 0.1 µM; in assay [6], under 1 µM. For the same compound, the MTAP intact/deleted ratio result in assay [5] was “B (an IC50 ratio greater than or equal to 3 fold but lower than 10 fold)”.
